Earlier results on three compounds are cited in patent publication US20210401736A1, “SEMI-SOLID CHEWABLE GEL CANNABINOID COMPOSITIONS AND METHODS OF MAKING AND USING THEREOF” (Seattle Gummy Company, priority 2019, published 2021).

Molecules are shown by their SMILES.

Data set [1] concerns the target CB1 receptor (Homo sapiens, UniProt P21554).
For data set [2], the target named is T1, 5-HT1A receptor (Homo sapiens, UniProt P08908).
T1 sequence (P08908 1-422): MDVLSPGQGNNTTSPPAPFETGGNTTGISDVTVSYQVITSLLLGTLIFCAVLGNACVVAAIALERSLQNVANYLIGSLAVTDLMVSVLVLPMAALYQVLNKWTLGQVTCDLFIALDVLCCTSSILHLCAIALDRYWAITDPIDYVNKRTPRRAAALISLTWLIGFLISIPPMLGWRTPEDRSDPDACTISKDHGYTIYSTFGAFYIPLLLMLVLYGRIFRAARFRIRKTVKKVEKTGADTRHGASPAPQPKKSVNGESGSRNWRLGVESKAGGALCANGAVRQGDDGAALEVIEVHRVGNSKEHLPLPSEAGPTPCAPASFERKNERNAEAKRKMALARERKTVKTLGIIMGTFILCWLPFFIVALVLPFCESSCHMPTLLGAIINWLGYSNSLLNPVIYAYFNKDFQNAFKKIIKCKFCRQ

Data set [3] deals with alpha2-adrenergic receptor.
For data set [4] the following is noted: 5 mg of CBN versus 10 mg dose of diazepam, according to studies.

CB1 receptor, sequence (P21554 whole entry): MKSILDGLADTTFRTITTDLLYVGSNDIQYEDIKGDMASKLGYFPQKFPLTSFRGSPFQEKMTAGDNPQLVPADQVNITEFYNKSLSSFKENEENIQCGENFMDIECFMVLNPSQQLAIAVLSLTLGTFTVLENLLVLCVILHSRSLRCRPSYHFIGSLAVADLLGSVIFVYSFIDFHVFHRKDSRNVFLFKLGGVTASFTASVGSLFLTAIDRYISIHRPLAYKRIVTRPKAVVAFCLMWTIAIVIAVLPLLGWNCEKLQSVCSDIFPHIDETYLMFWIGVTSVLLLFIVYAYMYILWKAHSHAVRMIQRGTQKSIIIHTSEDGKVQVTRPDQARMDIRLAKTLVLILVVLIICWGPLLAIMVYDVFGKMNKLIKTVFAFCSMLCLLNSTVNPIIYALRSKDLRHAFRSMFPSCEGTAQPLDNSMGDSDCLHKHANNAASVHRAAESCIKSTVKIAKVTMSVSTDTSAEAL

As to `C=C(C)[C@@H]1CCC(C)=C[C@H]1c1c(O)cc(CCCCC)cc1O` [CBD, cannabidiol, reference compound], the “solubility in polyols such as glycerol” value is on record as “low solubility” and the solubility in water entry is given as “water insoluble”.
In the case of `CCCCCc1cc(O)c(C/C=C(\C)CCC=C(C)C)c(O)c1` [CBG, cannabigerol], the “solubility in polyols such as glycerol” value was “low solubility” and the solubility in water result is “water insoluble”. Besides, the “affinity, CB1 receptor antagonist” value in data set [1] is “low affinity”. In data set [2], the “affinity, 5-HT1A receptor antagonist” value was “moderate affinity”. The “affinity, alpha2-adrenergic receptor agonist” value in data set [3] was “high affinity”.
As for `CCCCCc1cc(O)c2c(c1)OC(C)(C)c1ccc(C)cc1-2` [CBN, cannabinol], in data set [4], the sedative effect entry is listed as “as effective as 10 mg dose of diazepam”.
